# According to article PMC2579691, “Safety and pharmacokinetics of motesanib in combination with gemcitabine for the treatment of patients with solid tumours” (British Journal of Cancer, 2008):
# Experiments:
# [1] = plasma pharmacokinetics of gemcitabine in patients (phase 1b); conditions: for Tmax: h (range)
# [2] = system: CYP3A4; parameters: method as in Shipley et al, 1992; Mini et al, 2006; conditions: ref Shipley et al, 1992; Mini et al, 2006; cited from earlier work
# [3] = dose-limiting toxicities and adverse events in patients (phase 1b)
# [4] = clinical; conditions: human, in vivo
# [5] = parameters: method as in Rosen et al, 2007; conditions: motesanib monotherapy, first-in-human study; ref Rosen et al, 2007; cited from earlier work
# [6] = human, in vivo
# [7] = system: advanced solid tumours; assay: best tumour response per modified RECIST; assay type: in vivo, human; conditions: for Confirmed complete response, n (%) / Confirmed objective response, % (95% CI) / Confirmed partial response, n (%) / Progressive disease, n (%) / Stable disease, n (%): with gemcitabine 1000 mg m^−2
# Procedure: Computed tomography (CT) or magnetic resonance imaging (MRI) for tumour assessments were performed at baseline and at 12-week intervals, or as clinically indicated. In patients with baseline measurable disease tumour response per modified RECIST ([Therasse et al, 2000]) was assessed by the investigator. Complete and partial responses were confirmed using CT or MRI scans no less than 28 days after the initial response.
# [8] = system: PDGFR; parameters: method as in Polverino et al, 2006; conditions: ref Polverino et al, 2006; cited from earlier work
# [9] = system: human umbilical vein endothelial cell (HUVEC) proliferation; conditions: in vitro, cited from earlier work
# [10] = system: VEGFR1; parameters: method as in Polverino et al, 2006; conditions: ref Polverino et al, 2006; cited from earlier work
# [11] = human, in vivo; remark: listed apart in the source
# [12] = system: Kit; parameters: method as in Polverino et al, 2006; conditions: ref Polverino et al, 2006; cited from earlier work
# [13] = system: VEGFR3; parameters: method as in Polverino et al, 2006; conditions: ref Polverino et al, 2006; cited from earlier work
compound,measurement,setting,value
Nc1ccn([C@@H]2O[C@H](CO)[C@@H](O)C2(F)F)c(=O)n1 [gemcitabine],effect of motesanib coadministration on pharmacokinetics,[1]; combination therapy,not markedly affected
same,AUC(0-t),"[1]; human, plasma, intravenous, 1000 mg m^−2, AUC0–2, week 1, range across motesanib dose groups",4720 to 6270 ng·h/mL
same,AUC(0-t),"[1]; human, plasma, intravenous, AUC0–2, week 2, range across motesanib dose groups",6560 to 7920 ng·h/mL
same,Cmax,"[1]; human, plasma, iv, 1000 mg m^−2",9720 ng/mL
same,AUC(0-t),"[1]; human, plasma, iv, 1000 mg m^−2, AUC0–2, μg h ml^−1 (s.d.), gemcitabine 1000 mg m^−2 i.v. alone (week 1, day 1), motesanib 50 mg QD cohort",5210 ng·h/mL
same,AUC(0-t),"[1]; human, plasma, iv, 1000 mg m^−2, AUC0–2, μg h ml^−1 (s.d.), gemcitabine 1000 mg m^−2 i.v. alone (week 1, day 1), motesanib 75 mg BID cohort",6270 ng·h/mL
same,AUC(0-t),"[1]; human, plasma, iv, 1000 mg m^−2, AUC0–2, μg h ml^−1 (s.d.), gemcitabine 1000 mg m^−2 i.v. alone (week 1, day 1), motesanib 125 mg QD cohort",4720 ng·h/mL
same,concentration at 2 h,"[1]; human, plasma, iv, 1000 mg m^−2, C2, ng ml^−1 (s.d.), gemcitabine 1000 mg m^−2 i.v. alone (week 1, day 1), motesanib 50 mg QD cohort",104 ng/mL
same,concentration at 2 h,"[1]; human, plasma, iv, 1000 mg m^−2, C2, ng ml^−1 (s.d.), gemcitabine 1000 mg m^−2 i.v. alone (week 1, day 1), motesanib 75 mg BID cohort",101 ng/mL
same,concentration at 2 h,"[1]; human, plasma, iv, 1000 mg m^−2, C2, ng ml^−1 (s.d.), gemcitabine 1000 mg m^−2 i.v. alone (week 1, day 1), motesanib 125 mg QD cohort",88 ng/mL
same,Tmax,"[1]; human, plasma, iv, 1000 mg m^−2, tmax, gemcitabine 1000 mg m^−2 i.v. alone (week 1, day 1), motesanib 50 mg QD cohort",0.5 h
same,Tmax,"[1]; human, plasma, iv, 1000 mg m^−2, tmax, gemcitabine 1000 mg m^−2 i.v. alone (week 1, day 1), motesanib 75 mg BID cohort",0.5 h
same,Tmax,"[1]; human, plasma, iv, 1000 mg m^−2, tmax, gemcitabine 1000 mg m^−2 i.v. alone (week 1, day 1), motesanib 125 mg QD cohort",0.38 h
same,AUC(0-t),"[1]; human, plasma, iv, AUC0–2, μg h ml^−1 (s.d.), gemcitabine 1000 mg m^−2 i.v. in combination with motesanib 50 mg QD (week 2, day 1)",7920 ng·h/mL
same,AUC(0-t),"[1]; human, plasma, iv, AUC0–2, μg h ml^−1 (s.d.), gemcitabine 1000 mg m^−2 i.v. in combination with motesanib 75 mg BID (week 2, day 1)",7090 ng·h/mL
same,AUC(0-t),"[1]; human, plasma, iv, AUC0–2, μg h ml^−1 (s.d.), gemcitabine 1000 mg m^−2 i.v. in combination with motesanib 125 mg QD (week 2, day 1)",6560 ng·h/mL
same,concentration at 2 h,"[1]; human, plasma, iv, C2, ng ml^−1 (s.d.), gemcitabine 1000 mg m^−2 i.v. in combination with motesanib 50 mg QD (week 2, day 1)",183 ng/mL
same,concentration at 2 h,"[1]; human, plasma, iv, C2, ng ml^−1 (s.d.), gemcitabine 1000 mg m^−2 i.v. in combination with motesanib 75 mg BID (week 2, day 1)",234 ng/mL
same,concentration at 2 h,"[1]; human, plasma, iv, C2, ng ml^−1 (s.d.), gemcitabine 1000 mg m^−2 i.v. in combination with motesanib 125 mg QD (week 2, day 1)",133 ng/mL
same,Tmax,"[1]; human, plasma, iv, tmax, gemcitabine 1000 mg m^−2 i.v. in combination with motesanib 50 mg QD (week 2, day 1)",0.5 h
same,Tmax,"[1]; human, plasma, iv, tmax, gemcitabine 1000 mg m^−2 i.v. in combination with motesanib 75 mg BID (week 2, day 1)",0.5 h
same,Tmax,"[1]; human, plasma, iv, tmax, gemcitabine 1000 mg m^−2 i.v. in combination with motesanib 125 mg QD (week 2, day 1)",0.25 h
same,increase of mean Cmax and AUC in week 2 compared with week 1,"[1]; same patients, all motesanib dose groups",< 2 fold
same,metabolism by CYP3A4,[2],not metabolised by CYP3A4
CC1(C)CNc2cc(NC(=O)c3cccnc3NCc3ccncc3)ccc21 [motesanib],deaths during the study,"[3]; all patients, all deaths unrelated to motesanib treatment",Three patients died
same,target once-daily dose (maximum target dose),[3]; in combination with gemcitabine 1000 mg m^−2,125 mg QD
same,AUC(0-inf),[4]; 125 mg,1700 ng·h/mL
same,AUC(0-t),[4]; 125 mg,1900 ng·h/mL
same,Cmax,[4]; 125 mg,421 ng/mL
same,concentration at 24 h,[4]; 125 mg,6.9 ng/mL
same,half-life,"[4]; 125 mg, t1/2,z, h (s.d.), motesanib 125 mg QD, after single-dose (week 1, day 2), mean (s.d.)",3.8 h
same,Tmax,"[4]; 125 mg, tmax, h (range), motesanib 125 mg QD, after single-dose (week 1, day 2), median (range)",1.5 h
same,half-life,"[4]; mean t1/2,z, after multiple-dose administration in combination with gemcitabine, range over cohorts",4.3 to 5 h
same,half-life,"[4]; mean t1/2,z, after single-dose administration, range over cohorts",3.8 to 5.7 h
same,Tmax,"[4]; overall median tmax, after multiple-dose administration in combination with gemcitabine, range over cohorts",0.83 to 2 h
same,Tmax,"[4]; po, overall median tmax, after single-dose oral administration, range for all three dose cohorts",0.5 to 1.5 h
same,half-life,"[4]; t1/2,z, h (s.d.)",5.65 h
same,half-life,"[4]; t1/2,z, h (s.d.), motesanib 125 mg QD, after multiple-dose with gemcitabine (week 2, day 1), mean (s.d.)",4.6 h
same,Tmax,"[4]; tmax, h (range)",0.57 h
same,Tmax,"[4]; tmax, h (range), motesanib 125 mg QD, after multiple-dose with gemcitabine (week 2, day 1), median (range)",2 h
same,maximum-tolerated dose,[5],125 mg QD
same,cases of cholecystitis,[6],No cases of cholecystitis occurred
same,motesanib-related diarrhoea,[6],4 n
same,motesanib-related fatigue,[6],3 n
same,motesanib-related headache,[6],3 n
same,motesanib-related lethargy,[6],6 n
same,motesanib-related nausea,[6],3 n
same,patients with motesanib treatment-related adverse events,[6],62%
same,"Confirmed complete response, n (%)",[7]; 50 mg QD cohort (n=11),0 (0) n (%)
same,"Confirmed objective response, % (95% CI)",[7]; 50 mg QD cohort (n=11),0 (0.0–28.5) %
same,"Confirmed partial response, n (%)",[7]; 50 mg QD cohort (n=11),0 (0) n (%)
same,"Progressive disease, n (%)",[7]; 50 mg QD cohort (n=11),7 (64) n (%)
same,"Stable disease, n (%)",[7]; 50 mg QD cohort (n=11),4 (36) n (%)
same,"Confirmed complete response, n (%)",[7]; 75 mg BID cohort (n=9),0 (0) n (%)
same,"Confirmed objective response, % (95% CI)",[7]; 75 mg BID cohort (n=9),0 (0.0–33.6) %
same,"Confirmed partial response, n (%)",[7]; 75 mg BID cohort (n=9),0 (0) n (%)
same,"Progressive disease, n (%)",[7]; 75 mg BID cohort (n=9),2 (22) n (%)
same,"Stable disease, n (%)",[7]; 75 mg BID cohort (n=9),1 (11) n (%)
same,"Confirmed complete response, n (%)",[7]; 125 mg QD cohort (n=6),0 (0) n (%)
same,"Confirmed objective response, % (95% CI)",[7]; 125 mg QD cohort (n=6),17 (0.4–64.1) %
same,"Confirmed partial response, n (%)",[7]; 125 mg QD cohort (n=6),1 (17) n (%)
same,"Progressive disease, n (%)",[7]; 125 mg QD cohort (n=6),3 (50) n (%)
same,"Stable disease, n (%)",[7]; 125 mg QD cohort (n=6),2 (33) n (%)
same,objective response rate,"[7]; all patients (1 of 26), with gemcitabine",4%
same,patients who achieved stable disease,"[7]; all patients (7 of 26), with gemcitabine",27%
same,"Confirmed complete response, n (%)",[7]; all patients (n=26),0 (0) n (%)
same,"Confirmed objective response, % (95% CI)",[7]; all patients (n=26),4 (0.1–19.6) %
same,"Confirmed partial response, n (%)",[7]; all patients (n=26),1 (4) n (%)
same,"Progressive disease, n (%)",[7]; all patients (n=26),12 (46) n (%)
same,"Stable disease, n (%)",[7]; all patients (n=26),7 (27) n (%)
same,durable stable disease ⩾24 weeks,"[7]; all patients, with gemcitabine",No patients
same,patients with progressive disease as best response,"[7]; all patients, with gemcitabine",12 of 26
same,IC50,[8],84 nM
same,IC90 of HUVEC proliferation,"[9]; ref Amgen Inc., data on file",0.028 µg/mL
same,IC50 of HUVEC proliferation,"[9]; ref Polverino et al, 2006",0.004 µg/mL
same,"decrease of Cmax (except 125 mg QD, week 1) and AUC vs motesanib monotherapy study",[11],< 50%
same,"tmax, h (range)",[11],0.5 (0.25–6.0) h
